# Results: a melting point compilation (Tetko et al.; mined from patent text by program, amines drawn as free bases though some values may be those of a salt)
row,SMILES,melting point
1,COC1=C(OC)C(=O)C(CCC(=O)N2CCC[C@H]2C(=O)O)=C(C)C1=O,131 °C
2,C[C@@H]1CN(C(=O)OC(C)(C)C)C[C@H]2Cc3cc(F)c(CO)nc3N21,91 to 93 °C
3,COc1ccc(Nc2nc(-c3cc(-c4ccccc4)no3)cs2)nc1,203 to 205 °C
4,C=C(C)Cn1c(C)c(C)c2cnnc(OCc3ccc(F)cc3)c21,118 to 120 °C
5,CCN1Cc2ccccc2C(=O)c2cc(CC(=O)O)ccc21,141 to 144 °C
6,C[C@@H](C(=O)O)N(C)C(=O)c1cc(C(F)(F)F)cc([N+](=O)[O-])c1N,136 °C
7,CCOc1ccc(-c2ccc3c(c2)C=C(C(=O)OC)CCS3(=O)=O)cc1,173 to 175 °C
8,CCc1ncnc2cc(O)c(OC)cc12,210 to 215 °C
9,N=C(N)c1ccc2c(c1)N(CC(=O)c1ccccc1-c1ccccc1)C(=O)CN2,148 to 150 °C
10,CC1(C)Oc2ccc(OCc3ccccc3)cc2C2OC21 (stereo not given),70 to 72 °C
11,Cc1c(Cl)cccc1S(=O)(=O)Nc1ccc2ncccc2c1,228 °C
12,CC#CCOc1ccc(SC(C(=O)O)c2cccc(Cl)c2)cc1 (stereo not given),64 °C
13,Fc1ccc(-c2cc3ccccc3[nH]c2=S)cc1,259 to 262 °C
14,Cc1nc(N2CCN(c3ccccc3)C2=O)sc1C(=O)O,286 to 289 °C
15,CC12CC(O)C3c4cc(O)ccc4CCC3C1CCC2O (stereo not given),229 to 232 °C
16,Cc1nc2cccc3n(CCCCNS(=O)(=O)C(F)(F)F)c(=O)c1n23,195 to 196 °C
17,CCN(Cc1csc(N)c1C(=O)c1ccc(Cl)cc1)c1ccccc1,130 to 132 °C
18,O=C(Nc1ccccc1C(=O)O)c1cccc(OC(F)F)c1,186 to 191 °C
19,C#CCNC(=O)C=C(C)N,137 to 138 °C
20,CCC1(CCCCN2CCN(c3ccc(Cl)cc3)CC2)C(=O)Nc2cc(F)ccc21 (stereo not given),145 to 147 °C
21,CC(C)=CCN1CCc2c(sc(N)c2C(=O)c2ccc(Br)cc2)C1,73 to 75 °C
22,N=C(Nc1ccc(CCNCc2ccccc2)cc1)c1cccs1,116 to 118 °C
23,CCn1c(=O)sc2cc(C(O)c3ccc([N+](=O)[O-])cc3)ccc21 (stereo not given),160 to 162 °C
24,CC(C)(C)OC1OC(=O)C2C1C2(C)C (stereo not given),115 °C
25,O=C(Cl)CC(c1ccccc1)c1ccccc1,41 to 43 °C

row,SMILES,melting point
1,COc1ccc(NCCCCCNC(C)=O)c2c1C(=O)c1ccccc1C2=O,145 to 147 °C
2,NC(=O)c1cc2n(c1)CCc1ccccc1C2=O,228 °C
3,CCOC(=O)c1cc(C(C)C)n(-c2ccc(Cl)cc2Cl)n1,93 to 95 °C
4,CS(=O)(=O)N(Cc1ccc(F)cc1)c1cccnc1,93 to 95 °C
5,CCOC(=O)C1CCCCCCC(=O)C(=O)N1 (stereo not given),129 to 130 °C
6,Oc1ccc(-c2ccc(CCC(O)CCc3cccnc3)cc2)cc1 (stereo not given),140 to 143 °C
7,COc1ccc2c(c1)C(c1ccccc1)N(S(C)(=O)=O)N=C2Cc1c(Cl)cncc1Cl (stereo not given),223 to 224 °C
8,CCCCOc1cc2cc(CO)c(CO)c(-c3ccnc(Cl)c3)c2cc1OC,93 to 97 °C
9,COC(=O)c1ccccc1OCCOc1cccc2ccccc12,132 to 137 °C
10,O=C(c1ccc(-c2ccc(Cl)cc2)o1)C1CC1,88 to 89 °C
11,COC(=O)c1ccc(-c2nnc(-c3ccc(C(F)(F)F)cc3)o2)cc1,216 to 217 °C
12,CCOC1=CC2=CCC3C(CCC4(C)C3CCC4(C)C(C)=O)C2(C)CC1 (stereo not given),114 to 116 °C
13,CCCCN1C(=O)c2cncnc2Nc2ccccc21,145 to 147 °C
14,CCc1[nH]c(=O)[nH]c(=O)c1N1CCN(Cc2ccccc2)CC1,255 to 256 °C
15,CC(=O)Nc1ccc(C(=O)N2CC2C#N)c(OC(C)=O)c1 (stereo not given),118 to 120 °C
16,COc1c(C)cc(N=C=S)cc1C(=S)N(C)C,74 to 75 °C
17,CCn1ncc2c(Cl)c(C(N)=O)cnc21,192 to 193 °C
18,Cn1nc(-c2ccc(Cl)cc2Cl)cc1O,128 °C
19,CC(C)(N)CNC(=O)Nc1ccccc1,130 to 131 °C
20,O=C(NC(=O)c1cccs1)NC1CCNC(Cc2ccc3ccccc3c2)C1 (stereo not given),217 to 219 °C
21,CS(=O)(=O)c1cnc2c(c1)cc(-c1ncco1)n2Cc1ccc(F)cc1,200 to 201 °C
22,COC(CNC(=O)CCl)OC,33 to 36 °C
23,O=C1C(Cl)=C(CC2CCCC(C(F)(F)F)C2)C(=O)c2ccccc21 (stereo not given),104 °C
24,CNC(=O)Cn1c(-c2ccc(Cl)cc2)nc2cccnc21,238 °C
25,CCCCOC(=O)S(=O)(=O)Nc1sc(CC(C)C)cc1-c1ccc(Cn2c(-c3ccccc3)nc(OC)c2C=O)c(Cl)c1,58 °C

row,SMILES,melting point
1,O=C(O)c1ccc2c(c1)S(=O)(=O)c1ccc([N+](=O)[O-])cc1C=C2,310 to 312 °C
2,CCOC(=O)C(=O)CC(=O)c1cn(Cc2ccccc2F)c2ccccc2c1=O,152 to 153 °C
3,COc1c(Cl)ccc(-c2cc(N)c(Cl)c(C(=O)NOC3C=CCCC3)n2)c1F (stereo not given),180 to 182 °C
4,Cc1cc(N2CCN(CCOc3ccccc3)C2=O)sc1C(=O)NCc1cccnc1,78 to 80 °C
5,O=C(O)c1cccc(-c2ccc(Cl)c3cc(Cc4ccc(F)c(F)c4)sc23)c1,214 to 215 °C
6,COc1ccc(-c2cc3nccnc3[nH]2)cc1OC,212 to 214 °C
7,OC(c1ccc(Oc2ccc(Cl)cc2Cl)cc1)C(F)n1cncn1 (stereo not given),107 to 108 °C
8,BrCc1cc2ccccc2s1,107 to 109 °C
9,Cc1cc(C)c2c(c1)OCC2=O,55 to 60 °C
10,COc1cc2c3c(n(CCCNS(=O)(=O)c4ccccc4)c(=O)c2cc1OC)-c1ccccc1C3=O,249 to 250 °C
11,CCCc1nc2c(N)nc3ccccc3c2n1CCOCCCCl,131 to 132 °C
12,Cc1cccc2c1C(=O)N(C)CC(=O)N2,200 to 202 °C
13,Cc1cc(C)c2nc(NCCCN3CCCCC3)n(Cc3nc(C)ccc3O)c2c1,> 260 °C
14,COc1ccc(F)c2c1CCC(C=O)C2=O (stereo not given),66 to 68 °C
15,Cc1nnc2c(NC(N)=O)cc3cc(-c4ccc(CN5CCCCC5)cc4)ccc3n12,> 260 °C
16,CN1CCOc2cc(S(=O)(=O)n3c(CCC(=O)O)cc4nc(Cl)ccc43)ccc21,175 to 185 °C
17,O=C(c1ccc(F)cc1)N1CCCC(c2nc(-c3cccc(F)c3)no2)C1 (stereo not given),86 to 89 °C
18,CCCCc1cc(C(=O)O)ccc1C(N)C(=O)O (stereo not given),227 °C
19,CC1(C)CC(=O)C2=C(C1)NC1=C(C(=O)CC(C)(C)C1)C2c1cccc(-c2ccccc2)c1,227 to 229 °C
20,Cc1cccc(-c2n[nH]cc2-c2ccc(F)c(-c3ccc(N4CCN(C)CC4)cn3)c2)n1,97 °C
21,O=S1CCON=C1c1nc2ccccc2s1 (stereo not given),192 to 195 °C
22,CC(=O)Oc1ccc(CC2SC(=O)N(C(c3ccccc3)(c3ccccc3)c3ccccc3)C2=O)cc1 (stereo not given),152 to 156 °C
23,CNC(=S)C1=CC(CF)(CF)Oc2ccc(C(F)(F)C(F)(F)F)cc21,148 to 149 °C
24,CC(=O)NC(=Cc1ccccc1)C1=NC(=Cc2ccc(C)s2)C(=O)O1,193 to 194 °C
25,COc1ccc(CN2c3ccc(Cl)cc3C=C(C(=O)O)C2C(F)(F)F)cc1 (stereo not given),196 to 197 °C
